Target: T1, recombinant human GR (Homo sapiens, UniProt P04150)
T1 construct: purchased Panvera/Invitrogen P2812 (kit P2893)
T1 sequence (P04150 1-777): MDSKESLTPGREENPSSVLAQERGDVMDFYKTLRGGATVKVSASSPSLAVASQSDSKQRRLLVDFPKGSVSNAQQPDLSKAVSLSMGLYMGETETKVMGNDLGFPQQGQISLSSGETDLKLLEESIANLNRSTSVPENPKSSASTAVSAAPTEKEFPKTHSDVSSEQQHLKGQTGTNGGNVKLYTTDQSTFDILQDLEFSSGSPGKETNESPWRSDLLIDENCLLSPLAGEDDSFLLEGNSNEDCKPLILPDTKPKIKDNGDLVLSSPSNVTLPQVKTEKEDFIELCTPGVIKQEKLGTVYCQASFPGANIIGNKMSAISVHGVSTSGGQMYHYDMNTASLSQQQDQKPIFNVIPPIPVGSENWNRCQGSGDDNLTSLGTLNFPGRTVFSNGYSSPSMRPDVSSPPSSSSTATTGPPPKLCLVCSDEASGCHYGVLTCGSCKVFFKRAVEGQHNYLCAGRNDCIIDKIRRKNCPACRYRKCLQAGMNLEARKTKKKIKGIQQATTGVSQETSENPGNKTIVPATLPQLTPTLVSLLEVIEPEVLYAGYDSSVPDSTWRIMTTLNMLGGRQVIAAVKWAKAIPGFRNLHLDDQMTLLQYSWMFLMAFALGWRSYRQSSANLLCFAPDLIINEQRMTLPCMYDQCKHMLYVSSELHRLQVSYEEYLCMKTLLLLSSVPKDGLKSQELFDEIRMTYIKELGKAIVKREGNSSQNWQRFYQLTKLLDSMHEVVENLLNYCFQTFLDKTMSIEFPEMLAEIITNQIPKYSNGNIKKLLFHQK
Assay: Human Glucocorticoid Receptor (GR) Assay, fluorescence polarization
Assay type: binding
Conditions: GS Red tracer, incubated 2 h at r.t., XLfit model 205, read-out: GRhuFL_FP_v2 Mean IC50
Summary of the method: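 Fluorescence polarization kit assay: recombinant GR and GS Red fluorescent ligand with Stabilizing Peptide and DTT in potassium phosphate/sodium molybdate/EDTA screening buffer. Plates incubated 2 h in the dark at r.t.; DMSO served as 0% and dexamethasone as 100% control.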

| Structure (SMILES) | IC50 [nM] |
| --- | --- |
| COc1cccc([C@@H](Oc2ccc3c(cnn3-c3ccc(F)cc3)c2)[C@H](C)NC(=O)c2ccc(C(F)(F)F)cc2)c1 [Example 83, N-((1R,2S)-1-(1-(4-fluorophenyl)-1H-indazol-5-yloxy)-1-(3-methoxyphenyl)propan-2-yl)-4-(trifluoromethyl)benzamide] | 5.8 |
| COc1cccc([C@@H](Oc2ccc3c(cnn3-c3ccc(F)cc3)c2)[C@H](C)NC(=O)c2ncco2)c1 [Example 84, N-((1R,2S)-1-(1-(4-fluorophenyl)-1H-indazol-5-yloxy)-1-(3-methoxyphenyl)propan-2-yl)oxazole-2-carboxamide] | 2.3 |
| COc1cccc([C@@H](Oc2ccc3c(cnn3-c3ccc(F)cc3)c2)[C@H](C)NC(=O)c2cocn2)c1 [Example 85, N-((1R,2S)-1-(1-(4-fluorophenyl)-1H-indazol-5-yloxy)-1-(3-methoxyphenyl)propan-2-yl)oxazole-4-carboxamide] | 2.1 |
| COc1cccc([C@@H](Oc2ccc3c(cnn3-c3ccc(F)cc3)c2)[C@H](C)NC(=O)c2ccco2)c1 [Example 86, N-((1R,2S)-1-(1-(4-fluorophenyl)-1H-indazol-5-yloxy)-1-(3-methoxyphenyl)propan-2-yl)furan-2-carboxamide] | 3.8 |
| COc1cccc([C@@H](Oc2ccc3c(cnn3-c3ccc(F)cc3)c2)[C@H](C)NC(=O)c2ccncn2)c1 [Example 88, N-((1R,2S)-1-(1-(4-fluorophenyl)-1H-indazol-5-yloxy)-1-(3-methoxyphenyl)propan-2-yl)pyrimidine-4-carboxamide] | 3.2 |
| COc1cccc([C@@H](Oc2ccc3c(cnn3-c3ccc(F)cc3)c2)[C@H](C)NC(=O)c2ccccn2)c1 [Example 89, N-((1R,2S)-1-(1-(4-fluorophenyl)-1H-indazol-5-yloxy)-1-(3-methoxyphenyl)propan-2-yl)picolinamide] | 4.4 |
| CCC[C@H](NC(=O)CO)[C@H](Oc1ccc2c(cnn2-c2ccc(F)cc2)c1)c1ccccc1 [Example 91, N-((1R,2S)-1-(1-(4-fluorophenyl)-1H-indazol-5-yloxy)-1-phenylpentan-2-yl)-2-hydroxyacetamide] | 5.2 |
| CCC[C@H](NC(=O)C(C)(C)C)[C@H](Oc1ccc2c(cnn2-c2ccc(F)cc2)c1)c1ccccc1 [Example 92, N-((1R,2S)-1-(1-(4-fluorophenyl)-1H-indazol-5-yloxy)-1-phenylpentan-2-yl)pivalamide] | 3.8 |
| CCC[C@H](NC(=O)CO)[C@H](Oc1ccc2c(cnn2-c2ccc(F)cc2)c1)c1cccc(OC)c1 [Example 93, N-((1R,2S)-1-(1-(4-fluorophenyl)-1H-indazol-5-yloxy)-1-(3-methoxyphenyl)pentan-2-yl)-2-hydroxyacetamide] | 3.7 |
| CCC[C@H](NC(=O)C(C)(C)C)[C@H](Oc1ccc2c(cnn2-c2ccc(F)cc2)c1)c1cccc(OC)c1 [Example 94, N-((1R,2S)-1-(1-(4-fluorophenyl)-1H-indazol-5-yloxy)-1-(3-methoxyphenyl)pentan-2-yl)pivalamide] | 3.1 |
| CC[C@H](NC(=O)CO)[C@H](Oc1ccc2c(cnn2-c2ccc(F)cc2)c1)c1ccccc1 [Example 95, N-((1R,2S)-1-(1-(4-fluorophenyl)-1H-indazol-5-yloxy)-1-phenylbutan-2-yl)-2-hydroxyacetamide] | 3.4 |
| CC[C@H](NC(=O)C(C)(C)C)[C@H](Oc1ccc2c(cnn2-c2ccc(F)cc2)c1)c1ccccc1 [Example 96, N-((1R,2S)-1-(1-(4-fluorophenyl)-1H-indazol-5-yloxy)-1-phenylbutan-2-yl)pivalamide] | 3.5 |
| CC[C@H](NC(=O)CO)[C@H](Oc1ccc2c(cnn2-c2ccc(F)cc2)c1)c1cccc(OC)c1 [Example 97, N-((1R,2S)-1-(1-(4-fluorophenyl)-1H-indazol-5-yloxy)-1-(3-methoxyphenyl)butan-2-yl)-2-hydroxyacetamide] | 3.3 |
| C[C@H](NC(=O)C(F)(F)F)[C@H](Sc1ccc2c(cnn2-c2ccc(F)cc2)c1)c1ccccc1 [Example 103, 2,2,2-trifluoro-N-((1R,2S)-1-(1-(4-fluorophenyl)-1H-indazol-5-ylthio)-1-phenylpropan-2-yl)acetamide] | 2.6 |
| C[C@H](NC(=O)NC1CCCC1)[C@H](Oc1ccc2c(cnn2-c2ccc(F)cc2)c1)c1ccccc1 [Example 104] | 3.6 |
| C[C@H](NC(=O)NCc1ccco1)[C@H](Oc1ccc2c(cnn2-c2ccc(F)cc2)c1)c1ccccc1 [Example 105, 1-{(1S,2R)-2-{[1-(4-Fluorophenyl)-1H-indazole-5-yl]oxy}-1-methyl-2-phenylethyl}-3-(2-furylmethyl)urea] | 3.2 |
| CCOC(=O)CNC(=O)N[C@@H](C)[C@H](Oc1ccc2c(cnn2-c2ccc(F)cc2)c1)c1ccccc1 [Example 106, Ethyl N-{[(1S,2R)-2-{[1-(4-fluorophenyl)-1H-indazole-5-yl]oxy}-1-methyl-2-phenylethyl]carbamoyl}glycinate] | 3.7 |
| CC(C)[C@@H](C)NC(=O)N[C@@H](C)[C@H](Oc1ccc2c(cnn2-c2ccc(F)cc2)c1)c1ccccc1 [Example 107] | 4 |
| C[C@H](NC(=S)NCc1ccco1)[C@H](Oc1ccc2c(cnn2-c2ccc(F)cc2)c1)c1ccccc1 [Example 108, 1-{(1S,2R)-2-{[1-(4-Fluorophenyl)-1H-indazole-5-yl]oxy}-1-methyl-2-phenylethyl}-3-(2-furylmethyl)thiourea] | 4.9 |
| COCC(=O)N[C@@H](CC(C)C)[C@H](Oc1ccc2c(cnn2-c2ccc(F)cc2)c1)c1cccc(F)c1 [Example 109, N-{(1S)-1-[(R)-(3-Fluorophenyl)-{[1-(4-fluorophenyl)-1H-indazole-5-yl]oxy}methyl]-3-methyl-butyl}-2-methoxyacetamide] | 23 |
| CC(C)C[C@H](NC(=O)C(F)(F)F)[C@H](Oc1ccc2c(cnn2-c2ccc(F)cc2)c1)c1cccc(F)c1 [Example 110, 2,2,2-Trifluoro-N-{(1S)-1-[(R)-(3-Fluorophenyl)-{[1-(4-fluorophenyl)-1H-indazole-5-yl]oxy}methyl}-3-methylbutyl}-acetamide] | 29 |
| COCC(=O)N[C@@H](COC)[C@H](Oc1ccc2c(cnn2-c2ccc(F)cc2)c1)c1cccc(F)c1 [Example 111, N-[(1)-(2R)-(3-Fluorophenyl)-2-{[1-(4-fluorophenyl)-1H-indazole-5-yl]oxy}-1-(methoxymethyl)ethyl]-2-methoxyacetamide] | 15 |
| COC[C@H](NC(=O)c1ccco1)[C@H](Oc1ccc2c(cnn2-c2ccc(F)cc2)c1)c1cccc(F)c1 [Example 112, N-[(1S)-(2R)-(3-Fluorophenyl)-2-{[1-(4-fluorophenyl)-1H-indazol-5-yl]oxy}-1-(methoxymethyl)ethyl]furan-2-carboxamide] | 21 |
| C[C@H](NC(=O)c1ccco1)[C@H](Oc1ccc2c(cnn2-c2cccnc2)c1)c1ccccc1 [Example 114, N-[(1S,2R)-1-Methyl-2-phenyl-2-{[1-(3-pyridyl)-1H-indazol-5-yl]oxy}ethyl]furan-2-carboxamide] | 3.2 |
| C[C@H](NC(=O)c1ccco1)[C@H](Oc1ccc2c(cnn2-c2ccncc2)c1)c1ccccc1 [Example 115, N-[(1S,2R)-1-Methyl-2-phenyl-2-{[1-(4-pyridyl)-1H-indazol-5-yl]oxy}ethyl]furan-2-carboxamide] | 3.8 |
| COC(=O)c1ccc(-n2ncc3cc(O[C@H](c4ccccc4)[C@H](C)NC(=O)c4ccco4)ccc32)cc1 [Example 116, Methyl 4-(5-{(1R,2S)-2-[(2-furylcarbonyl)amino]-1-phenylpropoxy}-1H-indazol-1-yl)benzoate] | 7.7 |
| COCC(=O)N[C@@H](C)[C@H](Oc1ccc2c(cnn2-c2ccccn2)c1)c1ccccc1 [Example 118, 2-Methoxy-N-[1-methyl-2-phenyl-2-(1-pyridin-2-yl-1H-indazol-5-yloxy)-ethyl]acetamide] | 2.9 |
| C[C@H](NC(=O)C(F)(F)F)[C@H](Oc1ccc2c(cnn2-c2ccc(Cl)nn2)c1)c1ccccc1 [Example 119, N-{2-[1-(6-Chloro-pyridazin-3-yl)-1H-indazol-5-yloxy]-1-methyl-2-phenyl-ethyl}-2,2,2-trifluoro-acetamide] | 3.1 |
| COCC(=O)N[C@@H](C)[C@H](Oc1ccc2c(cnn2-c2ncccn2)c1)c1ccccc1 [Example 120, 2-Methoxy-N-[1-methyl-2-phenyl-2-(1-pyrimidin-2-yl-1H-indazol-5-yloxy)-ethyl]-acetamide] | 210 |
| COc1cccc([C@@H](Oc2ccc3c(cnn3-c3ccc(F)cc3)c2)[C@H](C)NC(=O)CO)c1 [Example 121, N-[(1R,2S)-1-[1-(4-fluorophenyl)indazol-5-yl]oxy-1-(3-methoxyphenyl)propan-2-yl]-2-hydroxy-acetamide] | 2.8 |
